Entries after “also recorded” stand apart in the source; their conditions may differ.
Key:
[1] = test system: iCas9 H1-hESCs; experiment: Phalloidin stain of filamentous (F-) ACTIN in fixed cells after dissociation; format: cell-based, human; settings: thiazovivin treated cells after dissociation, stain at 3.5 h
Procedure: Immunofluorescence staining of fixed cells was performed as described by Ihry et. al., 2017. Protein lysates were made by vortexing cell pellets in […] (Thermo Scientific 89901) supplemented with Halt protease inhibitor cocktail (Thermo Scientific 78430) and phosphatase inhibitors (Thermo Scientific 1862495). Samples were incubated at 4 C for 10 minutes before centrifugation at 14,000×g for 10 minutes at 4 C. Supernatants were transferred to new tubes and quantified using the BCA protein assay kit (Thermo Scientific 23225) and a SpectraMax Paradigm (Molecular Devices) plate reader. Samples were prepared with NuPAGE LDS sample buffer 4× (Invitrogen NP0008) and NuPAGE sample reducing agent (Invitrogen NP0009) and heated for 10 minutes at 70 C. Chameleon Duo Pre-stained Protein Ladder (LiCOR P/N 928-60000) was loaded alongside 10 ug of protein per sample on a NuPAGE 4-12% Bis-Tris Protein Gels, 1.5 mm, 10-well (Invitrogen NP0335BOX). Gel electrophoresis was performed at 150 V for 1 hr in NuPAGE MOPS SDS Running buffer (20×) (Invitrogen NP0001) using a XCell SureLock Mini-Cell (Thermo Scientific E10002). Transfer was performed using an iBlot 2 dry blotting system (Thermo IB21002 and IB23002) as described by manufacturer. Blots were blocked in TBS blocking buffer (LiCOR 927-50000) for 1 hour at room temperature. […]

[2] = test system: iCas9 H1-hESCs; experiment: Assaying survival without ROCK inhibitor (single cell dissociation and replating, IncuCyte confluence / time-lapse); format: cell-based, human; settings: control and PAWR knockout hPSCs, in the presence of thiazovivin (ROCK inhibitor)
Procedure: Control and mutant iCas9 H1-hESCs were dissociated with accutase for 10 minutes. Flowmi 40-micron cell strainers (BEL-ART H13680-0040) were used to ensure a uniform single cell suspension prior to replating cells. Cells were plated at a density of 10,500 to 21,000 cells/cm^2 plus or minus thiazovivin (ROCK inhibitor). Timelapse images were taken in 1 hr intervals using IncuCyte zoom (Essen Biosciences). The confluence processing analysis tool (IncuCyte Zoom Software) calculated confluency for each sample.

## O=C(NCc1ccccc1)c1csc(Nc2ccncn2)n1 [thiazovivin]
[1]
  cytoskeletal organization (F-ACTIN, phalloidin): increased surface area, a fanned-out shape with actin stress fibers, and a large circular adhesion belt-like structure
[2]
  survival after single cell dissociation and replating: survive replating; also recorded: survived as single cells
